Experimental findings from patent publication US12559529B2, “NPY2 receptor agonists” (Boehringer Ingelheim International GmbH, priority 2019, dated 2026) are described below.

Test [1] has as its target T1, Human Neuropeptide Y2 Receptor (Homo sapiens, UniProt P49146).
T1 construct: purchased CHEMICON HTS066M
T1 sequence (P49146 1-381): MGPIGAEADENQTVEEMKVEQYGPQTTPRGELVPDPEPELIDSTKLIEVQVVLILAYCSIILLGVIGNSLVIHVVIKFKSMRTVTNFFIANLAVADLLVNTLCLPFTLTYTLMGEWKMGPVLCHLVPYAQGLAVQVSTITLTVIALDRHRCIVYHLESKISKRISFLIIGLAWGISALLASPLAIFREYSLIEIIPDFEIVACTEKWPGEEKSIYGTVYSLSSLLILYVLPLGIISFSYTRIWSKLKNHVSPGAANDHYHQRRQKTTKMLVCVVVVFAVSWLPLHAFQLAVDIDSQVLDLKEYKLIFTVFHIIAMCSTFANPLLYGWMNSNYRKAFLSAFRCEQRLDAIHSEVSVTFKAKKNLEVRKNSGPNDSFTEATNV
Briefly: Radioligand binding competition assay (RLB). As to conditions: Table 3; human 125I-PYY (1-36) 0.02 nM, Y2 receptor membranes; read-out: Ki. In short, it runs like this:
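Membranes (0.5 μg/well) and test peptides, serially diluted from 1 mM DMSO stocks, were incubated 2 hours at room temperature in HEPES buffer pH 7.4 with Mg, Ca and ovalbumin.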

Test [2] concerns normal NMRI mice. Nature of the test: Effect on acute food intake in normal NMRI mice. The class given is in vivo. The settings on record: male NMRI mice, 10 nmol/kg subcutaneously once. In short, it runs like this: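 Male NMRI mice acclimatized in an HM-2 real-time food intake monitoring system, fasted 6 h before dark phase. Single subcutaneous dose of 10 nmol/kg peptide given 1 h before dark; n=7-8. Food intake expressed as % of vehicle group (50 mM phosphate pH7, 5% Mannitol).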

Broadly, the Ki is the equilibrium dissociation constant of an inhibitor or competing ligand from its target.

As for `CC(C)CC(=O)N[C@@H](C)C(=O)N1CCC[C@H]1C(=O)N[C@@H](CCC(=O)O)C(=O)N[C@@H](CCCCNC(=O)COCCOCCNC(=O)COCCOCCNC(=O)CC[C@H](NC(=O)CCCCCCCCCCCCCCCCC(=O)O)C(=O)O)C(=O)N1CCC[C@H]1C(=O)N[C@@H](CCC(=O)O)C(=O)N[C@@H](CCC(=O)O)C(=O)N[C@@H](CC(=O)O)C(=O)N[C@@H](CO)C(=O)N[C@@H](CCC(=O)O)C(=O)N1CCC[C@H]1C(=O)N[C@@H](CCC(=O)O)C(=O)N[C@@H](CCC(=O)O)C(=O)N[C@@H](CC(C)C)C(=O)N[C@@H](CCC(N)=O)C(=O)N[C@@H](CCCNC(=N)N)C(=O)N[C@@H](Cc1ccc(O)cc1)C(=O)N[C@@H](Cc1ccc(O)cc1)C(=O)N[C@H](C(=O)N[C@@H](CO)C(=O)N[C@@H](CC(C)C)C(=O)N[C@@H](CCCNC(=N)N)C(=O)N[C@@H](Cc1c[nH]cn1)C(=O)N[C@@H](Cc1ccc(O)cc1)C(=O)N[C@@H](Cc1ccc(O)cc1)C(=O)N[C@@H](CC(N)=O)C(=O)N[C@@H](Cc1c[nH]c2ccccc12)C(=O)N[C@@H](CC(C)C)C(=O)N[C@H](C(=O)N[C@@H](CCCNC(=N)N)C(=O)N[C@@H](CCC(N)=O)C(=O)N[C@@H](CCCNC(=N)N)C(=O)N[C@@H](Cc1ccc(O)cc1)C(N)=O)[C@@H](C)O)C(C)C` [Compound 209, N{alpha-4}-(3-methylbutanoyl)-N{epsilon-7}-[2-(2-{2-[2-(2-{2-[(4S)-4-carboxy-4-(17-carboxyheptadecanamido)butanamido]ethoxy}ethoxy)acetamido]ethoxy}ethoxy)acetamido]-[4A,7K,9E,12S,13E,18Q,22V,28Y,30W,31L]hPYY (4-36)], the inhibition constant (Ki) in test [1] came to 8.07 nM. In addition, the “Acute Food Intake 24 h [% vehicle]” value in test [2] is listed as 50 % vehicle.
In the case of `CC[C@H](C)[C@H](NC(=O)[C@H](CCC(=O)O)NC(=O)[C@H](CCC(=O)O)NC(=O)[C@@H]1CCCN1C(=O)[C@H](CO)NC(=O)[C@H](C)NC(=O)[C@H](CCC(=O)O)NC(=O)[C@H](CCC(=O)O)NC(=O)[C@H](CCC(=O)O)NC(=O)[C@@H]1CCCN1C(=O)[C@H](CCCCNC(=O)COCCOCCNC(=O)COCCOCCNC(=O)CC[C@H](NC(=O)CCCCCCCCCCCCCCCCC(=O)O)C(=O)O)NC(=O)[C@H](CCC(=O)O)NC(=O)[C@@H]1CCCN1C(=O)[C@H](C)NC(=O)CC(C)C)C(=O)N[C@@H](CCC(N)=O)C(=O)N[C@@H](CCCNC(=N)N)C(=O)N[C@@H](Cc1ccc(O)cc1)C(=O)N[C@@H](Cc1ccc(O)cc1)C(=O)N[C@H](C(=O)N[C@@H](CO)C(=O)N[C@@H](CC(C)C)C(=O)N[C@@H](CCCNC(=N)N)C(=O)N[C@@H](Cc1c[nH]cn1)C(=O)N[C@@H](Cc1ccc(O)cc1)C(=O)N[C@@H](Cc1ccc(O)cc1)C(=O)N[C@@H](CC(N)=O)C(=O)N[C@@H](Cc1c[nH]c2ccccc12)C(=O)N[C@@H](CC(C)C)C(=O)N[C@H](C(=O)N[C@@H](CCCNC(=N)N)C(=O)N[C@@H](CCC(N)=O)C(=O)N[C@@H](CCCNC(=N)N)C(=O)N[C@@H](Cc1ccc(O)cc1)C(N)=O)[C@@H](C)O)C(C)C` [Compound 241, N{alpha-4}-(3-methylbutanoyl)-N{epsilon-7}-[2-(2-{2-[2-(2-{2-[(4S)-4-carboxy-4-(17-carboxyheptadecanamido)butanamido]ethoxy}ethoxy)acetamido]ethoxy}ethoxy)acetamido]-[4A,7K,9E,11E,17I,18Q,22V,28Y,30W,31L]hPYY (4-36)], the Ki in test [1] was 2.95 nM. Moreover, the “Acute Food Intake 24 h [% vehicle]” value in test [2] was 45 % vehicle.
In the case of `CC(C)CC(=O)N[C@@H](C)C(=O)N1CCC[C@H]1C(=O)N[C@@H](CCC(=O)O)C(=O)N[C@@H](CCCCNC(=O)COCCOCCNC(=O)COCCOCCNC(=O)CC[C@H](NC(=O)CCCCCCCCCCCCCCCCC(=O)O)C(=O)O)C(=O)N1CCC[C@H]1C(=O)N[C@@H](CCC(=O)O)C(=O)N[C@@H](CCC(=O)O)C(=O)N[C@@H](CC(=O)O)C(=O)N[C@@H](C)C(=O)N[C@@H](CCC(=O)O)C(=O)N1CCC[C@H]1C(=O)N[C@@H](C)C(=O)N[C@@H](CCC(=O)O)C(=O)N[C@@H](CC(C)C)C(=O)N[C@@H](CCC(N)=O)C(=O)N[C@@H](CCCNC(=N)N)C(=O)N[C@@H](Cc1ccc(O)cc1)C(=O)N[C@@H](Cc1ccc(O)cc1)C(=O)N[C@H](C(=O)N[C@@H](CO)C(=O)N[C@@H](CC(C)C)C(=O)N[C@@H](CCCNC(=N)N)C(=O)N[C@@H](Cc1c[nH]cn1)C(=O)N[C@@H](Cc1ccc(O)cc1)C(=O)N[C@@H](Cc1ccc(O)cc1)C(=O)N[C@@H](CC(N)=O)C(=O)N[C@@H](Cc1c[nH]c2ccccc12)C(=O)N[C@@H](CC(C)C)C(=O)N[C@H](C(=O)N[C@@H](CCCNC(=N)N)C(=O)N[C@@H](CCC(N)=O)C(=O)N[C@@H](CCCNC(=N)N)C(=O)N[C@@H](Cc1ccc(O)cc1)C(N)=O)[C@@H](C)O)C(C)C` [Compound 244, N{alpha-4}-(3-methylbutanoyl)-N{epsilon-7}-[2-(2-{2-[2-(2-{2-[(4S)-4-carboxy-4-(17-carboxyheptadecanamido)butanamido]ethoxy}ethoxy)acetamido]ethoxy}ethoxy)acetamido]-[4A,7K,9E,13E,15A,18Q,22V,28Y,30W,31L]hPYY (4-36)], in test [1], the inhibitory constant (Ki) was found to be 1.84 nM. The “Acute Food Intake 24 h [% vehicle]” value in test [2] was determined as 49 % vehicle.
